Results reported in ChEMBL document CHEMBL1122782, “Bulky amine analogues of ketoprofen: potent antiinflammatory agents” (J Med Chem, 1984).

How the values were obtained:
Assay type in all cases: functional
[1] = test system: Rattus norvegicus; test: The mean increase in paw volume was compared between drug treated groups and placebo to calculate the percent inhibition in rats at 0.02 mmol/kg by carrageenan Edema Assay; 0-19
[2] = test system: Rattus norvegicus; test: The percent inhibition was calculated from the average differences in hind paw volume between the adjuvant injected controls and the adjuvant-injected medicated rats at 0.08 mmol/kg; 40-49
[3] = test system: Rattus norvegicus; test: The mean increase in paw volume was compared between drug treated groups and placebo to calculate the percent inhibition in rats at 0.08 mmol/kg by carrageenan Edema Assay; 30-39
[4] = test system: Rattus norvegicus; test: The percent inhibition was calculated from the average differences in hind paw volume between the adjuvant injected controls and the adjuvant-injected medicated rats at 0.08 mmol/kg; 90-99
[5] = test system: Rattus norvegicus; test: The mean increase in paw volume was compared between drug treated groups and placebo to calculate the percent inhibition in rats at 0.02 mmol/kg by carrageenan Edema Assay; 30-39; conditions: Rattus norvegicus
[6] = test system: Rattus norvegicus; test: The percent inhibition was calculated from the average differences in hind paw volume between the adjuvant injected controls and the adjuvant-injected medicated rats at 0.08 mmol/kg; 70-79
[7] = test system: Rattus norvegicus; test: The mean increase in paw volume was compared between drug treated groups and placebo to calculate the percent inhibition in rats at 0.08 mmol/kg by carrageenan Edema Assay; 40-49
[8] = test system: Rattus norvegicus; test: The mean increase in paw volume was compared between drug treated groups and placebo to calculate the percent inhibition in rats at 0.02 mmol/kg by carrageenan Edema Assay; 20-29

## CC(CN1CCCCC1CC1CCCCC1)c1cccc(C(C)(O)c2ccccc2)c1 (configuration not stated)
[1]
  inhibition in vivo at 20 µmol/kg: 0%

## CC(CN1CCCCC1CC1CCCCC1)c1cccc(C(O)c2c(Cl)cccc2Cl)c1 (configuration not stated)
[1]
  inhibition in vivo at 20 µmol/kg: 0%

## CN(C)CCCNCCc1cccc(C(=O)c2ccccc2)c1
[2]
  inhibition in vivo at 80 µmol/kg: 40%
[3]
  inhibition in vivo at 80 µmol/kg: 30%

## CC(CN1CCCCC1CC1CCCCC1)c1cccc(C(N)c2ccccc2)c1 (configuration not stated)
[4]
  inhibition in vivo at 80 µmol/kg: 90%
[5]
  inhibition in vivo at 20 µmol/kg: 30%

## CC(CN1CCCCC1CCC1CCCCC1)c1cccc(C(=O)c2ccccc2)c1 (configuration not stated)
[3]
  inhibition in vivo at 80 µmol/kg: 30%
[4]
  inhibition in vivo at 80 µmol/kg: 90%

## CC(CN1CCOCC1)c1cccc(C(N)c2ccccc2)c1 (configuration not stated)
[6]
  inhibition in vivo at 80 µmol/kg: 70%
[7]
  inhibition in vivo at 80 µmol/kg: 40%

## CC(CN1CCCC1CC1CCCCC1)c1cccc(C(=O)c2ccccc2)c1 (configuration not stated)
[6]
  inhibition in vivo at 80 µmol/kg: 70%
[7]
  inhibition in vivo at 80 µmol/kg: 40%

## Cc1ccc(C(O)c2cccc(C(C)CN3CCCCC3CC3CCCCC3)c2)cc1 (configuration not stated)
[1]
  inhibition in vivo at 20 µmol/kg: 0%

## CC(CN1CCCCC1)c1cccc(C(=O)c2ccccc2)c1 (configuration not stated)
[2]
  inhibition in vivo at 80 µmol/kg: 40%
[3]
  inhibition in vivo at 80 µmol/kg: 30%

## OC(c1ccccc1)c1cccc(CCN2CCCCC2CC2CCCCC2)c1 (configuration not stated)
[1]
  inhibition in vivo at 20 µmol/kg: 0%

## O=C(c1ccccc1)c1cccc(CCN2CCCCC2CC2CCCCC2)c1 (configuration not stated)
[8]
  inhibition in vivo at 20 µmol/kg: 20%

## CC(CN1CCCCC1CC1CCCCC1)c1cccc(C(=O)c2ccccc2Cl)c1 (configuration not stated)
[6]
  inhibition in vivo at 80 µmol/kg: 70%
[5]
  inhibition in vivo at 20 µmol/kg: 30%

## Cc1ccc(C(=O)c2cccc(C(C)CN3CCCCC3CC3CCCCC3)c2)cc1 (configuration not stated)
[1]
  inhibition in vivo at 20 µmol/kg: 0%

## Cc1ccccc1C(=O)c1cccc(C(C)CN2CCCCC2CC2CCCCC2)c1 (configuration not stated)
[8]
  inhibition in vivo at 20 µmol/kg: 20%

## COc1ccc(C(O)c2cccc(C(C)CN3CCCCC3CC3CCCCC3)c2)cc1 (configuration not stated)
[1]
  inhibition in vivo at 20 µmol/kg: 0%
